What was measured:
[1] = target: T1, DNA (cytosine-5)-methyltransferase 3A (Homo sapiens, UniProt Q9Y6K1); experiment: Inhibition of human C-terminal DNMT3A at 20 uM after 1 hr by fluorescence assay
[2] = target: T1, DNA (cytosine-5)-methyltransferase 3A; experiment: Inhibition of human C-terminal DNMT3A at 32 uM after 1 hr by fluorescence assay
[3] = target: T1, DNA (cytosine-5)-methyltransferase 3A; experiment: Inhibition of human C-terminal DNMT3A after 1 hr by fluorescence assay
[4] = target: DNA (cytosine-5)-methyltransferase 1 (Homo sapiens) (UniProt P26358); experiment: Inhibition of human His-DNMT1 using [methyl-3H]SAM as substrate at 100 uM after 2 hrs
Chain of DNA (cytosine-5)-methyltransferase 1 (Homo sapiens) (P26358 whole entry): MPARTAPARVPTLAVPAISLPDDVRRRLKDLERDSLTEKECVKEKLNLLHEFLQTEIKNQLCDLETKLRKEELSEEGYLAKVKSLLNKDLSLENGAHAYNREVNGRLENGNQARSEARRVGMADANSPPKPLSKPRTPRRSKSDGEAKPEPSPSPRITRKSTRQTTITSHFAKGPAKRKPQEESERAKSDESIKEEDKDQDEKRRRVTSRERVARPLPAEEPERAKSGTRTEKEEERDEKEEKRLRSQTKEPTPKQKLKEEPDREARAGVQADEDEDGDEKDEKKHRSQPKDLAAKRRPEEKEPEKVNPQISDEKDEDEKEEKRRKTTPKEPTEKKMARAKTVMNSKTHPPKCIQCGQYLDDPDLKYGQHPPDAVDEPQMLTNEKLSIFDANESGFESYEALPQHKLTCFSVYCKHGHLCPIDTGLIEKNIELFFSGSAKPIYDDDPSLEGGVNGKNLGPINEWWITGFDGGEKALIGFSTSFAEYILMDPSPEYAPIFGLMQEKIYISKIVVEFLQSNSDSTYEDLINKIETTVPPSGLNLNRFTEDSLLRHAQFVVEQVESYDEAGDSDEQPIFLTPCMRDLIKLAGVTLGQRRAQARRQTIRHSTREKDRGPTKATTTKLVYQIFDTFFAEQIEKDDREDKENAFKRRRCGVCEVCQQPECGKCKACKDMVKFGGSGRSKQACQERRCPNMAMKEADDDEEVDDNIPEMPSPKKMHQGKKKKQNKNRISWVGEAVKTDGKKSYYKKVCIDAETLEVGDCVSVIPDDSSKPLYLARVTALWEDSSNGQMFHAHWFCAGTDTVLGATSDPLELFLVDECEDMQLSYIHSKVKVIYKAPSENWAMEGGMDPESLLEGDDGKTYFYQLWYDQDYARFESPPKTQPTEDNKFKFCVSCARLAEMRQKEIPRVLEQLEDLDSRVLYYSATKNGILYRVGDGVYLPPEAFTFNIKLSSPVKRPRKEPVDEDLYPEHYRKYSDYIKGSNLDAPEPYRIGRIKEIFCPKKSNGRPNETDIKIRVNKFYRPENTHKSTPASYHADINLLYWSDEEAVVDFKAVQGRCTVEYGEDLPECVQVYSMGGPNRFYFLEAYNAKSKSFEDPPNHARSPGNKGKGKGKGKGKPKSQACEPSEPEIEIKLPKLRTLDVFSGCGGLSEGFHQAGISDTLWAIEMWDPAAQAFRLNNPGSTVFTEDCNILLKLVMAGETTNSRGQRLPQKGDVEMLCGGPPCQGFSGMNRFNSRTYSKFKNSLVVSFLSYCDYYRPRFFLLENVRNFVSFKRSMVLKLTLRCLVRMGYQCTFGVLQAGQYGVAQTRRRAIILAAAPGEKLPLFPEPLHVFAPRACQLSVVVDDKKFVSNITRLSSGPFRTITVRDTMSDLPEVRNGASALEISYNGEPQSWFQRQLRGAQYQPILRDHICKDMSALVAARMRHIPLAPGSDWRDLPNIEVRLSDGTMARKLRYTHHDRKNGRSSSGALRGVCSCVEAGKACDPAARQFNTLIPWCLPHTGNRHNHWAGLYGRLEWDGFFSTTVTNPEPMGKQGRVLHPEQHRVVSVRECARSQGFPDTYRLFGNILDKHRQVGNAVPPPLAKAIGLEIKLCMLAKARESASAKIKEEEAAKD

[5] = Chemical stability of the compound in DMSO by HPLC analysis; assay type: physicochemical
[6] = Antiproliferative activity against human KARPAS299 cells after 2 to 4 days by ATPlite 1step luminescence assay; assay type: functional, cell-based; conditions: KARPAS-299
[7] = Antiproliferative activity against human KG1 cells after 2 to 4 days by ATPlite 1step luminescence assay; assay type: functional, cell-based; conditions: KG-1
[8] = test system: HCT-116; experiment: Antiproliferative activity against human HCT116 cells after 2 to 4 days by ATPlite 1step luminescence assay; assay type: functional, cell-based
[9] = Chemical stability of the compound after 30 mins by LC-MS analysis in presence of glutathione; assay type: physicochemical; conditions: 0.5 h
[10] = target: DNA (cytosine-5)-methyltransferase 1 (Homo sapiens) (UniProt P26358); experiment: Inhibition of human His-DNMT1 using [methyl-3H]SAM as substrate at 32 uM after 2 hrs

T1 sequence (Q9Y6K1 whole entry, looked up): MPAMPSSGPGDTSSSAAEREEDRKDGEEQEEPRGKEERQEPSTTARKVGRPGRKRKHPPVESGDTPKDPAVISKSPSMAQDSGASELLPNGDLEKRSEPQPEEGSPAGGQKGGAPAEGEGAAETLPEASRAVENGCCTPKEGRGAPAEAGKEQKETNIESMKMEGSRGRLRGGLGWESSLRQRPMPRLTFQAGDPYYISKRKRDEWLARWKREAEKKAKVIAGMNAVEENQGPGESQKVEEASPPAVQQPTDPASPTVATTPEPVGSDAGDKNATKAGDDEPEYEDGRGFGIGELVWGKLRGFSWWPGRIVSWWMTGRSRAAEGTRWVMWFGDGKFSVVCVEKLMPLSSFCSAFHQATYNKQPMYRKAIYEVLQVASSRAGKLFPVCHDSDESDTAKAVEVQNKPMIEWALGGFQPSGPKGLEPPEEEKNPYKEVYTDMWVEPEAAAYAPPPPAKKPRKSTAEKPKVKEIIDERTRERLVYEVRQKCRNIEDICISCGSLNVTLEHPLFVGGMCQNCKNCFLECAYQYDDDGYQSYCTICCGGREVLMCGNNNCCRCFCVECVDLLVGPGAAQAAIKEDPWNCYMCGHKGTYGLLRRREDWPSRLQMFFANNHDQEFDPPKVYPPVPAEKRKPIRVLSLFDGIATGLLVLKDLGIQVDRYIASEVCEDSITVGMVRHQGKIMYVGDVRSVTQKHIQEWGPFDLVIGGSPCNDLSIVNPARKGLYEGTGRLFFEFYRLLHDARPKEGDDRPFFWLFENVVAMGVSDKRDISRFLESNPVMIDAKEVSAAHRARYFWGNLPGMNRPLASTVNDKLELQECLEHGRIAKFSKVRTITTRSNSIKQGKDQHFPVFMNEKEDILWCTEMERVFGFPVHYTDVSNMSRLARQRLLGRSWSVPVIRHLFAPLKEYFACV

Compound | inhibition [1] | inhibition [2] | also measured
CC(C)(C)SC(C(=O)c1ccc(Cl)cc1)n1cnc2ccccc21 (stereo unspecified) | 10% | – | –
O=C(c1ccc(Cl)cc1)C(CSc1ncc[nH]1)n1cnc2ccccc21 (stereo unspecified) | – | 38% | –
CCOCC(C(=O)c1ccc(Cl)cc1)n1cnc2ncnc(N)c21 (stereo unspecified) | – | 70% | EC50 [3]: 2.1 µM; inhibition [4]: 29%; Stability [5]: Unstable
O=C(c1ccc(Cl)cc1)C(SC1CCCCC1)n1cnc2ccccc21 (stereo unspecified) | 21% | – | –
CCOC(c1ccc(Cl)cc1)C(CSCC)n1cnc2ccccc21 (stereo unspecified) | 9% | – | –
CCSCC(C(=O)c1ccc(OC)cc1)n1cnc2ccccc21 (stereo unspecified) | – | 0% | EC50 [6]: > 10 µM; EC50 [7]: > 10 µM; EC50 [8]: > 10 µM
C=C(C(=O)c1ccc(Cl)cc1)n1cnc2ccccc21 | – | 81% | EC50 [3]: 4 µM; Stability [9]: Unstable
O=C(c1ccc(Cl)cc1)C(CSCc1ncccn1)n1cnc2ccccc21 (stereo unspecified) | – | 43% | –
O=C(c1ccc(Cl)cc1)C(CSCC1CCCC1)n1cnc2ccccc21 (stereo unspecified) | – | 36% | –
O=C(c1ccc(Cl)cc1)C(CSCc1ccco1)n1cnc2ccccc21 (stereo unspecified) | – | 55% | –
CCSCC(C(=O)c1ccc(Cl)cc1)n1cccn1 (stereo unspecified) | 17% | – | –
CCSCC(C(=O)c1ccc(Cl)cc1)n1cnc2ccccc21 (stereo unspecified) | 70% | 45% | EC50 [3]: 3 µM; inhibition [4]: 22%; inhibition [10]: 70%; Stability [5]: Unstable
Cc1cc(Nc2ccc(NC(=O)c3ccc(Nc4ccnc5ccccc45)cc3)cc2)nc(N)n1 | – | – | EC50 [6]: 1.8 µM; EC50 [7]: 4.4 µM; EC50 [8]: > 10 µM
COc1ccc(CSCC(C(=O)c2ccc(Cl)cc2)n2cnc3ccccc32)cc1 (stereo unspecified) | – | 34% | –
CC(C)SC(C(=O)c1ccc(Cl)cc1)n1cnc2ccccc21 (stereo unspecified) | 5% | – | –
CCSC(C(=O)c1ccc(Cl)cc1)n1cnc2ccccc21 (stereo unspecified) | 15% | – | –
O=C(Cn1cnc2ccccc21)c1ccc(Cl)cc1 | – | 12% | –
CCSCC(C(=O)c1ccc(Cl)cc1)n1cnc2c(N)ncnc21 (stereo unspecified) | – | 0% | –

Compound | inhibition [1] | inhibition [2] | also measured
O=C(c1ccc(Cl)cc1)C(CSCc1ccccc1)n1cnc2ccccc21 (stereo unspecified) | 69% | 25% | –
CC(C)SCC(C(=O)c1ccc(Cl)cc1)n1cnc2ccccc21 (stereo unspecified) | 43% | – | –
O=C(/C(=C/C=C/c1ccccc1)n1cnc2ccccc21)c1ccc(Cl)cc1 | – | 0% | Stability [5]: Stable
CN(C)/C=C(/C(=O)c1ccc(Cl)cc1)n1cnc2ccccc21 | – | 0% | Stability [5]: Stable
CCSCC(C(=O)c1ccccc1)n1cnc2ccccc21 (stereo unspecified) | – | 34% | –
CCSCC(C(=O)c1ccc(Cl)c(Cl)c1)n1cnc2ccccc21 (stereo unspecified) | – | 38% | EC50 [6]: > 10 µM; EC50 [7]: 3.7 µM; EC50 [8]: 3.1 µM
O=C(c1ccc(Cl)cc1)C(CSCc1cccc([N+](=O)[O-])c1)n1cnc2ccccc21 (stereo unspecified) | – | 40% | –
CCSCC(C(OC)c1ccc(Cl)cc1)n1cnc2ccccc21 (stereo unspecified) | 5% | – | –
O=C(c1ccc(Cl)cc1)C(CSC1CCCCC1)n1cnc2ccccc21 (stereo unspecified) | 44% | – | –
CCOCC(C(=O)c1ccc(Cl)cc1)n1cnc2ccccc21 (stereo unspecified) | – | 63% | –
CCSCC(C(O)c1ccc(Cl)cc1)n1cnc2ccccc21 (stereo unspecified) | 4% | – | –
CCSCC(C(=O)c1ccc(Cl)cc1)n1ccnc1 (stereo unspecified) | 43% | – | –
CCSCC(Cn1cccn1)C(=O)c1ccc(Cl)cc1 (stereo unspecified) | 18% | – | –
CCSCC(Cn1ccnc1)C(=O)c1ccc(Cl)cc1 (stereo unspecified) | 9% | – | –
CCSCC(Cn1cnc2ccccc21)C(=O)c1ccc(Cl)cc1 (stereo unspecified) | 23% | – | –
CCSCC(C(=O)c1ccc(Cl)cc1)n1cnc2ncnc(N)c21 (stereo unspecified) | – | 54% | –
CC(C)(C)SCC(C(=O)c1ccc(Cl)cc1)n1cnc2ccccc21 (stereo unspecified) | 40% | – | –

From ChEMBL document CHEMBL3603802, “Design and synthesis of new non nucleoside inhibitors of DNMT3A” (Bioorg Med Chem, 2015)
